# Reference: patent US20060252807A1, “Novel ortho-terphenyl inhibitors of p38 kinase and methods of treating inflammatory disorders” (Kalypsys, Inc., priority 2005, published 2006)
# Molecular target: T1, active p38 alpha enzyme (Upstate Biotechnology) (Homo sapiens, UniProt Q16539)
# T1 construct: purchased Upstate Biotechnology
# Experiment: p38α biochemical assay (ATP turnover, luminescent detection, Cambrex PKlight)
# Settings: p38α kinase; Table 1 Biological Activity
# Outline: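 Luminescent PKlight readout of total ATP consumption follows a 2 h, 30C kinase reaction. Enzyme and MapkapK2 substrate run with 1.4 uM ATP (final) in buffer containing Mg2+, Ca2+, chelators, glycerol, reducing agent and BSA; test compounds added by pintool from DMSO.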
# T1 sequence (Q16539 whole entry): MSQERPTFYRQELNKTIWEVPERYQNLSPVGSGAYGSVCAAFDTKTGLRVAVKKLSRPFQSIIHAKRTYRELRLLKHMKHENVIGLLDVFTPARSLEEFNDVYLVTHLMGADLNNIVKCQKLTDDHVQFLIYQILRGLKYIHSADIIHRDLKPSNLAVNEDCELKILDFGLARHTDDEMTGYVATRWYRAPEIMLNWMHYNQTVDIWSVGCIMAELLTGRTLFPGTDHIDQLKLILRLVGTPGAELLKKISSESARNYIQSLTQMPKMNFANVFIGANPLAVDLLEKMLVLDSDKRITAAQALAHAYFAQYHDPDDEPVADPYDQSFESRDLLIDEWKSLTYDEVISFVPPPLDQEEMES
row,SMILES,IC50 [nM]
1,Cc1ccc(C)c(N2CCN(C(=O)c3csc(-c4sc(C)nc4-c4ccc(F)cc4)n3)CC2)c1 [Example 1919],> 1000
2,COc1ccc(N2CCN(C(=O)c3csc(-c4sc(C)nc4-c4ccc(F)cc4)n3)CC2)cc1 [Example 1920],> 1000
3,COc1ccccc1N1CCN(C(=O)c2csc(-c3sc(C)nc3-c3ccc(F)cc3)n2)CC1 [Example 1921],> 1000
4,COc1cccc(N2CCN(C(=O)c3csc(-c4sc(C)nc4-c4ccc(F)cc4)n3)CC2)c1 [Example 1922],> 1000
5,COc1ccc(CCN(C)C(=O)c2csc(-c3sc(C)nc3-c3ccc(F)cc3)n2)cc1OC [Example 1923],> 1000
6,Cc1nc(-c2ccc(F)cc2)c(-c2nc(C(=O)N3CCN(c4cccc(Cl)c4)CC3)cs2)s1 [Example 1924],> 1000
7,Cc1nc(-c2ccc(F)cc2)c(-c2nc(C(=O)N3CCN(c4ccc(Cl)cc4)CC3)cs2)s1 [Example 1925],> 1000
8,Cc1nc(-c2ccc(F)cc2)c(-c2nc(C(=O)N3CCN(c4ccc(F)cc4F)CC3)cs2)s1 [Example 1927],> 1000
9,Cc1nc(-c2ccc(F)cc2)c(-c2nc(C(=O)N(Cc3cccnc3)Cc3cccnc3)cs2)s1 [Example 1928],> 1000
10,Cc1nc(-c2ccc(F)cc2)c(-c2nc(C(=O)N3CCN(CCN4CCOCC4)CC3)cs2)s1 [Example 1929],> 1000
11,Cc1nc(-c2ccc(F)cc2)c(-c2nc(C(=O)N3CCC(N(C)C(=O)OC(C)(C)C)C3)cs2)s1 (stereo not shown) [Example 1930],> 1000
12,CC(=O)c1ccc(N2CCN(C(=O)c3csc(-c4sc(C)nc4-c4ccc(F)cc4)n3)CC2)cc1 [Example 1931],> 1000
13,CCN(CC)CCN(Cc1ccccc1)C(=O)c1csc(-c2sc(C)nc2-c2ccc(F)cc2)n1 [Example 1932],> 1000
14,Cc1nc(-c2ccc(F)cc2)c(-c2nc(C(=O)N3CCN(c4ccc([N+](=O)[O-])cc4)CC3)cs2)s1 [Example 1933],> 1000
15,Cc1nc(-c2ccc(F)cc2)c(-c2nc(C(=O)N(C)Cc3cccc4ccccc34)cs2)s1 [Example 1934],> 1000
16,Cc1nc(-c2ccc(F)cc2)c(-c2nc(C(=O)N3CCN(c4cc(Cl)ccc4C)CC3)cs2)s1 [Example 1935],> 1000
17,COc1cc(CN(C)C(=O)c2csc(-c3sc(C)nc3-c3ccc(F)cc3)n2)cc(OC)c1OC [Example 1936],≤ 1000

row,SMILES,IC50 [nM]
1,Cc1nc(-c2ccc(F)cc2)c(-c2nc(C(=O)N(CCc3ccccc3)Cc3ccccc3)cs2)s1 [Example 1937],> 1000
2,Cc1nc(-c2ccc(F)cc2)c(-c2nc(C(=O)N(C)C(Cc3ccccc3)c3ccccc3)cs2)s1 (stereo not shown) [Example 1939],> 1000
3,Cc1nc(-c2ccc(F)cc2)c(-c2nc(C(=O)N3CCC(O)(c4ccc(Cl)cc4)CC3)cs2)s1 [Example 1940],> 1000
4,C#CCN(Cc1ccc(Cl)cc1Cl)C(=O)c1csc(-c2sc(C)nc2-c2ccc(F)cc2)n1 [Example 1941],> 1000
5,CCN(C(=O)c1csc(-c2sc(C)nc2-c2ccc(F)cc2)n1)C(Cc1ccccc1)c1ccco1 (stereo not shown) [Example 1942],> 1000
6,Cc1nc(-c2ccc(F)cc2)c(-c2nc(C(=O)N3CCN(C(=O)OC(C)(C)C)C[C@H]3CO)cs2)s1 [Example 1943],> 1000
7,Cc1nc(-c2ccc(F)cc2)c(-c2nc(C(=O)N3CCN(c4ccc(C(C)(C)C)cc4)CC3)cs2)s1 [Example 1944],> 1000
8,Cc1nc(-c2ccc(F)cc2)c(-c2nc(C(=O)N3CCN(Cc4ccc5c(c4)OCO5)CC3)cs2)s1 [Example 1945],> 1000
9,COc1cc2c(cc1OC)CN(C(=O)c1csc(-c3sc(C)nc3-c3ccc(F)cc3)n1)CC2 [Example 1946],≤ 1000
10,Cc1nc(-c2ccc(F)cc2)c(-c2nc(C(=O)N3CCN(c4ccc(C(F)(F)F)cc4)CC3)cs2)s1 [Example 1947],> 1000
11,Cc1nc(-c2ccc(F)cc2)c(-c2nc(C(=O)N3CCN(c4cccc(C(F)(F)F)c4)CC3)cs2)s1 [Example 1948],> 1000
12,Cc1nc(-c2ccc(F)cc2)c(-c2nc(C(=O)N3CCN(c4ccc(Cl)c(Cl)c4)CC3)cs2)s1 [Example 1949],> 1000
13,Cc1nc(-c2ccc(F)cc2)c(-c2nc(C(=O)N3CCN(c4ccc(C(F)(F)F)cn4)CC3)cs2)s1 [Example 1951],> 1000
14,Cc1nc(-c2ccc(F)cc2)c(-c2nc(C(=O)N3CCN(c4ccccc4Cl)CC3)cs2)s1 [Example 1952],> 1000
15,COc1ccc(N2CCN(C(=O)c3csc(-c4sc(C)nc4-c4ccc(F)cc4)n3)CC2)cc1OC [Example 1953],> 1000
16,Cc1nc(-c2ccc(F)cc2)c(-c2nc(C(=O)N3CCCC(c4ccc(C(F)(F)F)cc4)C3)cs2)s1 (stereo not shown) [Example 1954],> 1000
17,Cc1nc(-c2ccc(F)cc2)c(-c2nc(C(=O)NC3CCCc4ccccc43)cs2)s1 (stereo not shown) [Example 1996],> 1000

# The remaining lines, values ahead:
row,IC50 [nM],SMILES
1,> 1000,Cc1nc(-c2ccc(F)cc2)c(-c2nc(C(=O)Nc3ccccc3)cs2)s1 [Example 1955]
2,> 1000,Cc1cccc(NC(=O)c2csc(-c3sc(C)nc3-c3ccc(F)cc3)n2)c1 [Example 1956]
3,> 1000,Cc1ccc(NC(=O)c2csc(-c3sc(C)nc3-c3ccc(F)cc3)n2)cc1 [Example 1957]
4,> 1000,Cc1nc(-c2ccc(F)cc2)c(-c2nc(C(=O)Nc3ccccc3C)cs2)s1 [Example 1958]
5,> 1000,Cc1ccc(NC(=O)c2csc(-c3sc(C)nc3-c3ccc(F)cc3)n2)nc1 [Example 1959]
6,> 1000,Cc1cccc(NC(=O)c2csc(-c3sc(C)nc3-c3ccc(F)cc3)n2)n1 [Example 1960]
7,> 1000,Cc1ccnc(NC(=O)c2csc(-c3sc(C)nc3-c3ccc(F)cc3)n2)c1 [Example 1961]
8,> 1000,Cc1nc(-c2ccc(F)cc2)c(-c2nc(C(=O)Nc3ncccc3C)cs2)s1 [Example 1962]
9,> 1000,Cc1nc(-c2ccc(F)cc2)c(-c2nc(C(=O)Nc3ccccc3F)cs2)s1 [Example 1963]
10,> 1000,Cc1nc(-c2ccc(F)cc2)c(-c2nc(C(=O)Nc3ccc(F)cc3)cs2)s1 [Example 1964]
11,> 1000,Cc1ccc(C)c(NC(=O)c2csc(-c3sc(C)nc3-c3ccc(F)cc3)n2)c1 [Example 1965]
12,> 1000,Cc1nc(-c2ccc(F)cc2)c(-c2nc(C(=O)Nc3ccc(C)c(C)c3)cs2)s1 [Example 1966]
13,> 1000,CCc1ccccc1NC(=O)c1csc(-c2sc(C)nc2-c2ccc(F)cc2)n1 [Example 1967]
14,> 1000,Cc1ccc(NC(=O)c2csc(-c3sc(C)nc3-c3ccc(F)cc3)n2)c(C)c1 [Example 1970]
15,> 1000,Cc1cc(C)cc(NC(=O)c2csc(-c3sc(C)nc3-c3ccc(F)cc3)n2)c1 [Example 1971]
16,> 1000,COc1cccc(NC(=O)c2csc(-c3sc(C)nc3-c3ccc(F)cc3)n2)c1 [Example 1972]
17,> 1000,COc1ccc(NC(=O)c2csc(-c3sc(C)nc3-c3ccc(F)cc3)n2)cc1 [Example 1973]
18,≤ 1000,COc1ccccc1NC(=O)c1csc(-c2sc(C)nc2-c2ccc(F)cc2)n1 [Example 1974]
19,≤ 1000,COc1ccncc1NC(=O)c1csc(-c2sc(C)nc2-c2ccc(F)cc2)n1 [Example 1975]
20,> 1000,Cc1nc(-c2ccc(F)cc2)c(-c2nc(C(=O)Nc3ccc(C)c(F)c3)cs2)s1 [Example 1976]
21,> 1000,Cc1nc(-c2ccc(F)cc2)c(-c2nc(C(=O)Nc3cccc(F)c3C)cs2)s1 [Example 1977]

row,IC50 [nM],SMILES
1,> 1000,Cc1nc(-c2ccc(F)cc2)c(-c2nc(C(=O)Nc3ccc(F)cc3F)cs2)s1 [Example 1979]
2,> 1000,Cc1nc(-c2ccc(F)cc2)c(-c2nc(C(=O)Nc3ccc4c(c3)CCC4)cs2)s1 [Example 1981]
3,> 1000,Cc1nc(-c2ccc(F)cc2)c(-c2nc(C(=O)Nc3ccccc3C(C)C)cs2)s1 [Example 1982]
4,≤ 1000,CC(=O)c1cccc(NC(=O)c2csc(-c3sc(C)nc3-c3ccc(F)cc3)n2)c1 [Example 1983]
5,> 1000,CC(=O)c1ccc(NC(=O)c2csc(-c3sc(C)nc3-c3ccc(F)cc3)n2)cc1 [Example 1984]
6,> 1000,CCc1cccc(C)c1NC(=O)c1csc(-c2sc(C)nc2-c2ccc(F)cc2)n1 [Example 1985]
7,> 1000,Cc1cc(C)c(NC(=O)c2csc(-c3sc(C)nc3-c3ccc(F)cc3)n2)c(C)c1 [Example 1986]
8,≤ 1000,Cc1nc(-c2ccc(F)cc2)c(-c2nc(C(=O)Nc3ccc4c(c3)OCO4)cs2)s1 [Example 1987]
9,≤ 1000,COc1ccc(NC(=O)c2csc(-c3sc(C)nc3-c3ccc(F)cc3)n2)c(C)c1 [Example 1988]
10,> 1000,CCOc1cccc(NC(=O)c2csc(-c3sc(C)nc3-c3ccc(F)cc3)n2)c1 [Example 1989]
11,> 1000,CCOc1ccccc1NC(=O)c1csc(-c2sc(C)nc2-c2ccc(F)cc2)n1 [Example 1990]
12,> 1000,CSc1ccccc1NC(=O)c1csc(-c2sc(C)nc2-c2ccc(F)cc2)n1 [Example 1991]
13,≤ 1000,Cc1nc(-c2ccc(F)cc2)c(-c2nc(C(=O)Nc3cccc(Cl)c3C)cs2)s1 [Example 1992]
14,> 1000,Cc1nc(-c2ccc(F)cc2)c(-c2nc(C(=O)Nc3ccc(C)c(Cl)c3)cs2)s1 [Example 1993]
15,≤ 1000,Cc1nc(-c2ccc(F)cc2)c(-c2nc(C(=O)Nc3cnc4ccccc4c3)cs2)s1 [Example 1994]
16,> 1000,Cc1nc(-c2ccc(F)cc2)c(-c2nc(C(=O)Nc3cc(F)c(F)cc3F)cs2)s1 [Example 1995]
17,> 1000,Cc1nc(-c2ccc(F)cc2)c(-c2nc(C(=O)Nc3ccccc3C(C)(C)C)cs2)s1 [Example 1997]
18,> 1000,Cc1nc(-c2ccc(F)cc2)c(-c2nc(C(=O)Nc3c(C)cccc3C(C)C)cs2)s1 [Example 1998]
19,> 1000,Cc1nc(-c2ccc(F)cc2)c(-c2nc(C(=O)Nc3ccc4ncsc4c3)cs2)s1 [Example 1999]
20,≤ 1000,CC(=O)Nc1ccc(NC(=O)c2csc(-c3sc(C)nc3-c3ccc(F)cc3)n2)cc1 [Example 2000]
21,≤ 1000,CC(=O)Nc1ccc(NC(=O)c2csc(-c3sc(C)nc3-c3ccc(F)cc3)n2)cn1 [Example 2001]
